Data taken from patent publication US20220000860A1, “COMPOUNDS, COMPOSITIONS, AND METHODS FOR TREATING HUMAN IMMUNODEFICIENCY VIRUS” (OYAGEN, INC., priority 2017, published 2022).
Where two headings read alike, the source gives them in different places.

Tests used:
00KE_KER2008 (Subtype A) = assay: PBMC Acute Infection, 00KE_KER2008; type: cell-based, HIV; conditions: Human immunodeficiency virus 1, PBMC, isolate 00KE-KER2008, subtype A, RT activity readout; for EC50: read-out: EC50; for EC90: read-out: EC90
Procedure: (§1) PHA-stimulated cells from at least two normal donors were pooled (i.e. mixed together), diluted in fresh medium to a final concentration of 1×10^6 cells/mL, and plated in the interior wells of a 96-well round bottom microplate at 50 μL/well (5×10^4 cells/well). Pooling of mononuclear cells from more than one donor was used to minimize the variability observed between individual donors in quantitative and qualitative differences in HIV infection and overall response to the PHA and IL-2 of primary lymphocyte populations. Each plate contained virus control wells (cells plus virus) and experimental wells (drug plus cells plus virus) of either 00KE_KER2008 (Subtype A), IIIB (Subtype B), or 98US_MSC5016 (Subtype C). Test drug dilutions were prepared at a 2×concentration and 100 μL of each concentration was placed in appropriate wells. Fifty μL of a predetermined dilution of virus stock was placed in each test well (final MOI≅0.1). After this period, cell-free supernatant samples were collected for analysis of reverse transcriptase (RT) activity with an RT assay. […] In the Table below SI50=CC50/EC50 and SI90=CC90/EC90.

[1] = PBMC Acute Infection, cytotoxicity (CC50/CC90); type: cell-based; conditions: human
Procedure: as §1

[2] = test system: Vif-dependent APOBEC3G degradation; assay: Vif-Dependent APOBEC3G Degradation Assay; type: cell-based, HIV
Procedure: APOBEC3G-V5-mCherry was stably expressed from the pIRES-P vector in 293T cells under puromycin selection. Fifty ng of plasmid expressing Vif-HA (accession no. AB573087) was transfected into the cells in 384-well format with Turbofect on a liquid handling robot. Four hours after transfection the compounds were added to cells in a range from 0-15 μM. Twenty-four hours after compound addition mCherry fluorescence was read on a BioTek Synergy4 plate reader (ex=587 nm, em=610 nm). Relative fluorescence units (RFU) from compound treated wells were quantified using thresholds set by the −Vif (positive control) and +Vif (negative control).

topoisomerase I (TOP1) = target: T1, topoisomerase I (TOP1) (Homo sapiens, UniProt P11387); assay: topoisomerase I inhibition
T1 sequence (P11387 1-765): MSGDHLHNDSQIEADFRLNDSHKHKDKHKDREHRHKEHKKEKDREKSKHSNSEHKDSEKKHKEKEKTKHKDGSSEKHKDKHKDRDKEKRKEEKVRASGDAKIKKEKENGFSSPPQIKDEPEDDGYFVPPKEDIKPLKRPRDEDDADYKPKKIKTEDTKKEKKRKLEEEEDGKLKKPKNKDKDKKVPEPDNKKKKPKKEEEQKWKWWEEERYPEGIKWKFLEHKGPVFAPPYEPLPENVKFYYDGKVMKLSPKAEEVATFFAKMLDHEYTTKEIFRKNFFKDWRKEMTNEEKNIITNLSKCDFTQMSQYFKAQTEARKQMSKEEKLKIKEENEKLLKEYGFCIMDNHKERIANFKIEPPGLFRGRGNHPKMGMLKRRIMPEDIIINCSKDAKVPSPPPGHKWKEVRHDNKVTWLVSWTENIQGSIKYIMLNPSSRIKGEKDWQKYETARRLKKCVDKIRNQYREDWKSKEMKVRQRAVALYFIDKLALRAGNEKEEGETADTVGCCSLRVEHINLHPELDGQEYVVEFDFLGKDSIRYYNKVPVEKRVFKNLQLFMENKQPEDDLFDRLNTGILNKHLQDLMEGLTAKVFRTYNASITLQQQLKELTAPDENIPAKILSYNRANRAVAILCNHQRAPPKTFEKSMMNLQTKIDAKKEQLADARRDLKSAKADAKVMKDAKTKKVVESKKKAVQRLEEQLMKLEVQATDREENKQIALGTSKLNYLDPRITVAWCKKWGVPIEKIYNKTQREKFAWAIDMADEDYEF

[3] = target: T2, recombinant HIV (pNL4-3) heterodimeric (p66/p51) Reverse Transcriptase (Human immunodeficiency virus type 1 group M subtype B, UniProt P12497); assay: reverse transcriptase assay; type: biochemical
T2 construct: purified recombinant HIV (pNL4-3) heterodimeric (p66/p51) Reverse Transcriptase (RT); purchased
Procedure: For the assays listed in Table I, the integrase assay was conducted using the XpressBio HIV-1 Integrase Assay Kit according to the manufacture's protocol. The protease assay was conducted with the Anthranilyl (Abz)-HIV Protease Substrate (Bachem H-2992), a hexapeptide FRET substrate derived from the p24/p15 cleavage site of the viral gag-pol poly-protein, which allows the screening of potential HIV protease inhibitors. 1 mM Abz-Substrate was diluted with Assay Buffer to a working stock of 20 μM. A 50 μM stock HIV-1 protease (received from Sook-kyung Lee (UNC)) was diluted with Assay Buffer (50 mM HEPES, pH 6.8, 150 mM NaCl, and 1% DMSO) to a working stock of 100 nM. 2 μl 100 nM HIV-1 Protease along with 2 uL 20 μM Abz Substrate was added into each well and incubated at room temperature (avoiding light) for 1 hour before being read on an Envision plate reader (Perkin Elmer) excitation at 280 nm, emission at >435 nm. The reverse transcriptase assay utilized purified recombinant HIV (pNL4-3) heterodimeric (p66/p51) Reverse Transcriptase (RT) that was purchased from a commercially available source. The assay was performed in 96-well filter plate, where RT activity was determined by the incorporation of radiolabeled deoxyribonucleotides into the newly synthesized DNA strand. The RT reaction mixture contained in vitro transcribed viral RNA derived from the HIV-1NL4-3 5′-LTR region (position 454 to 652) and primer that is complementary to the primer binding site (PBS, nucleotide residues nucleotides 636 to 652), radiolabeled deoxyribonucleotide, dNTPs and reverse transcriptase. Briefly, the reaction was carried out in a volume of 50 μl containing 50 mM Tris HCl, pH 7.8, 50 mM KCl, 5 mM MgCl2, 1 mM DTT, 50 μM each of dATP, dCTP, dGTP, 50 nM dTTP, 1 μCi of [^3H] dTTP (70-90 Ci/mM) and 5 nM template/primer. The reaction was initiated by the addition of 10 nM RT. For compound screening, serially diluted test articles were added to the reaction followed by the addition of RT. The reaction mixture was incubated at 37° C. for 1 h, and then quenched by the addition of ice-cold trichloroacetic acid (TCA) to the final concentration of 10%. The plate was incubated at 4° C. for 1 h to precipitate the synthesized DNA, then rinsed 3-times with 10% TCA and 1 time with 70% ethanol. After addition of 25 μl scintillation fluid to completely dried wells, radioactivity is counted by MicroBeta scintillation counter. The reduction of radioactivity represents the potency of compound inhibition.

[4] = row of isolate 00KE-KER2008, subtype A
[5] = Human immunodeficiency virus 1, HEK-293T, 24 h, read-out: EC50, A3G Degradation Assay
[6] = Human immunodeficiency virus 1, read-out: A3G degradation at
[7] = PHA-stimulated PBMCs pooled from at least two normal donors, row of isolate 00KE-KER2008, subtype A

SMILES | EC50 (00KE_KER2008 (Subtype A)) | EC90 (00KE_KER2008 (Subtype A)) | CC50 [1, 4] | CC90 [1, 4] | CC50 ([1]; row of isolate 98US_MSC5016, subtype C) | CC50 ([1]; row of isolate IIIB, subtype B) | Vif-dependent A3G degradation (result in words) [2] | EC50 [2, 5] | EC50 [2, 6] | inhibition of topoisomerase I (TOP1) (result in words) (topoisomerase I (TOP1)) | IC50 [3] | activity against HIV reverse transcriptase (result in words) [3] | CC50 [1, 7] | CC90 [1, 7] | CC50 ([1]; PHA-stimulated PBMCs pooled from at least two normal donors, row of isolate 98US_MSC5016, subtype C) | CC50 ([1]; PHA-stimulated PBMCs pooled from at least two normal donors, row of isolate IIIB, subtype B)
CCc1c2c(nc3ccc(O)cc13)-c1cc3c(c(=O)n1C2)CNC(=O)[C@]3(O)CC [SN38-L, (S)-4,11-Diethyl-4,9-dihydroxy-1,2-dihydroquinolino[2′,3′:3,4]pyrrolo[1,2-b][2,7]naphthyridine-3,14(4H,12H)-dione] | 4 nM | 15 nM | 1180 nM | 27900 nM | 1180 nM | 5790 nM | block | 84 nM | 99 nM | do not inhibit | > 100000 nM | inactive |  |  |  | 
CCc1c2c(nc3ccc(N)cc13)-c1cc3c(c(=O)n1C2)CNC(=O)[C@]3(O)CC [Compound O5-SN, (S)-9-Amino-4,11-diethyl-4-hydroxy-1,2-dihydroquinolino[2′,3′:3,4]pyrrolo[1,2-b][2,7]naphthyridine-3,14(4H,12H)-dione] | 6 nM | 18 nM |  |  |  |  | block | 99 nM | 84 nM | do not inhibit | > 100000 nM | inactive | 2530 nM | > 100000 nM | 2530 nM | 6290 nM
